Source: PubChem BioAssay (NCI)
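Five compound concentrations were applied to cells in 96-well plates for 48 hours; endpoints were derived by simple linear interpolation of the resulting dose-response curve. TGI is the concentration that stops growth completely.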

Tests used:
Experiment in all cases: NCI tumour cell line growth inhibition, 48 h
SNB-19 CNS = test system: SNB-19 CNS
MOLT-4 leukemia = test system: MOLT-4 leukemia
K-562 leukemia = test system: K-562 leukemia
UACC-257 melanoma = test system: UACC-257 melanoma
HOP-92 NSCLC = test system: HOP-92 NSCLC
RXF 393 renal = test system: RXF 393 renal
SF-539 CNS = test system: SF-539 CNS
OVCAR-4 ovarian = test system: OVCAR-4 ovarian
LOX IMVI melanoma = test system: LOX IMVI melanoma
786-0 renal = test system: 786-0 renal
OVCAR-8 ovarian = test system: OVCAR-8 ovarian
NCI-H460 lung = test system: NCI-H460 lung
SW-620 colon = test system: SW-620 colon
UO-31 renal = test system: UO-31 renal
HL-60(TB) leukemia = test system: HL-60(TB) leukemia
HCC-2998 colon = test system: HCC-2998 colon
HCT-116 colon = test system: HCT-116 colon
BT-549 breast = test system: BT-549 breast
M14 melanoma = test system: M14 melanoma
U251 CNS = test system: U251 CNS
PC-3 prostate = test system: PC-3 prostate
SK-OV-3 ovarian = test system: SK-OV-3 ovarian
OVCAR-3 ovarian = test system: OVCAR-3 ovarian
SR leukemia = test system: SR leukemia
NCI-H522 lung = test system: NCI-H522 lung
SN12C renal = test system: SN12C renal
DU-145 prostate = test system: DU-145 prostate
SNB-75 CNS = test system: SNB-75 CNS
MDA-MB-231 breast = test system: MDA-MB-231 breast
SF-268 CNS = test system: SF-268 CNS
MDA-N = test system: MDA-N
SK-MEL-2 melanoma = test system: SK-MEL-2 melanoma
SF-295 CNS = test system: SF-295 CNS
A498 renal = test system: A498 renal
MDA-MB-435 = test system: MDA-MB-435
KM12 colon = test system: KM12 colon
EKVX NSCLC = test system: EKVX NSCLC
NCI-H226 lung = test system: NCI-H226 lung
SK-MEL-5 melanoma = test system: SK-MEL-5 melanoma
HT29 colon = test system: HT29 colon
CCRF-CEM leukemia = test system: CCRF-CEM leukemia
HCT-15 colon = test system: HCT-15 colon
CAKI-1 renal = test system: CAKI-1 renal
T-47D breast = test system: T-47D breast
COLO 205 colon = test system: COLO 205 colon
IGROV1 ovarian = test system: IGROV1 ovarian
MCF7 breast = test system: MCF7 breast
HS 578T breast = test system: HS 578T breast
ACHN renal = test system: ACHN renal
UACC-62 melanoma = test system: UACC-62 melanoma
TK-10 renal = test system: TK-10 renal
OVCAR-5 ovarian = test system: OVCAR-5 ovarian
A549 NSCLC = test system: A549 NSCLC
NCI-H23 lung = test system: NCI-H23 lung
HOP-62 NSCLC = test system: HOP-62 NSCLC
SK-MEL-28 melanoma = test system: SK-MEL-28 melanoma
MALME-3M melanoma = test system: MALME-3M melanoma

`CN(C)c1ccc(C(=NNC(=O)c2cc3ccccc3[nH]2)c2ccc(N(C)C)cc2)cc1` showed a TGI (SNB-19 CNS) greater than 44500 nM, a TGI (MOLT-4 leukemia) greater than 100000 nM and a TGI (K-562 leukemia) greater than 100000 nM. The TGI (UACC-257 melanoma) was greater than 100000 nM, the TGI (HOP-92 NSCLC) was 31800 nM and the TGI (RXF 393 renal) was 15000 nM. For the same compound, the TGI (SF-539 CNS) was 8040 nM, the TGI (OVCAR-4 ovarian) was greater than 100000 nM and the TGI (LOX IMVI melanoma) was greater than 100000 nM. It also gave a TGI (786-0 renal) of 19800 nM, a TGI (OVCAR-8 ovarian) greater than 100000 nM and a TGI (NCI-H460 lung) greater than 100000 nM. For the same compound, the TGI (SW-620 colon) was greater than 100000 nM, the TGI (UO-31 renal) was greater than 59300 nM and the TGI (HL-60(TB) leukemia) was 678 nM. For the same compound, the TGI (HCC-2998 colon) was 1480 nM, the TGI (HCT-116 colon) was greater than 34200 nM and the TGI (BT-549 breast) was greater than 44800 nM. It also gave a TGI (M14 melanoma) of 29000 nM, a TGI (U251 CNS) of 14500 nM and a TGI (PC-3 prostate) greater than 66800 nM. For the same compound, the TGI (SK-OV-3 ovarian) was greater than 87700 nM, the TGI (OVCAR-3 ovarian) was 1810 nM and the TGI (SR leukemia) was greater than 100000 nM. It also gave a TGI (NCI-H522 lung) of 2530 nM, a TGI (SN12C renal) greater than 93900 nM and a TGI (DU-145 prostate) greater than 100000 nM. The TGI (SNB-75 CNS) was 16900 nM, the TGI (MDA-MB-231 breast) was 12900 nM and the TGI (SF-268 CNS) was 5310 nM. It also gave a TGI (MDA-N) of 1490 nM, a TGI (SK-MEL-2 melanoma) of 3970 nM and a TGI (SF-295 CNS) of 5520 nM. For the same compound, the TGI (A498 renal) was 26300 nM, the TGI (MDA-MB-435) was 371 nM and the TGI (KM12 colon) was greater than 100000 nM. For the same compound, the TGI (EKVX NSCLC) was greater than 100000 nM, the TGI (NCI-H226 lung) was greater than 100000 nM and the TGI (SK-MEL-5 melanoma) was greater than 100000 nM. For the same compound, the TGI (HT29 colon) was 9930 nM, the TGI (CCRF-CEM leukemia) was greater than 25200 nM and the TGI (HCT-15 colon) was greater than 100000 nM. It also gave a TGI (CAKI-1 renal) of 45700 nM, a TGI (T-47D breast) greater than 100000 nM and a TGI (COLO 205 colon) greater than 20700 nM. It also gave a TGI (IGROV1 ovarian) of 25900 nM, a TGI (MCF7 breast) greater than 51000 nM and a TGI (HS 578T breast) of 3740 nM. The TGI (ACHN renal) was 24900 nM, the TGI (UACC-62 melanoma) was greater than 54000 nM and the TGI (TK-10 renal) was 30100 nM. For the same compound, the TGI (OVCAR-5 ovarian) was greater than 45500 nM, the TGI (A549 NSCLC) was greater than 100000 nM and the TGI (NCI-H23 lung) was greater than 32900 nM. For the same compound, the TGI (HOP-62 NSCLC) was 33700 nM.

Work on `O=C1C=CC(=O)c2c(O)c(N3CCSCC3)c(Cl)c(O)c21` yielded a TGI (MOLT-4 leukemia) of 3820 nM, a TGI (UACC-257 melanoma) of 2880 nM and a TGI (HOP-92 NSCLC) of 2210 nM. The TGI (RXF 393 renal) was 781 nM, the TGI (OVCAR-4 ovarian) was 1770 nM and the TGI (LOX IMVI melanoma) was 362 nM. The TGI (SK-MEL-28 melanoma) was 2160 nM, the TGI (NCI-H460 lung) was 1710 nM and the TGI (SW-620 colon) was 548 nM. The TGI (UO-31 renal) was 1810 nM, the TGI (HCT-116 colon) was 1030 nM and the TGI (M14 melanoma) was 1050 nM. The TGI (MALME-3M melanoma) was 1340 nM, the TGI (SK-OV-3 ovarian) was 4000 nM and the TGI (SR leukemia) was 1240 nM. It also gave a TGI (NCI-H522 lung) of 1290 nM, a TGI (DU-145 prostate) of 2020 nM and a TGI (MDA-MB-231 breast) of 1030 nM. For the same compound, the TGI (SF-268 CNS) was 1740 nM, the TGI (MDA-N) was 1480 nM and the TGI (SK-MEL-2 melanoma) was 603 nM. The TGI (MDA-MB-435) was 1940 nM, the TGI (KM12 colon) was 1380 nM and the TGI (NCI-H226 lung) was 1820 nM. It also gave a TGI (SK-MEL-5 melanoma) of 1690 nM, a TGI (HT29 colon) of 1470 nM and a TGI (CAKI-1 renal) of 1730 nM. The TGI (T-47D breast) was 2290 nM, the TGI (IGROV1 ovarian) was 2000 nM and the TGI (HS 578T breast) was 2180 nM. For the same compound, the TGI (ACHN renal) was 1480 nM, the TGI (UACC-62 melanoma) was 1750 nM and the TGI (TK-10 renal) was 1560 nM. For the same compound, the TGI (A549 NSCLC) was 1790 nM and the TGI (NCI-H23 lung) was 689 nM.
